Reference: patent US4312883A, “Furocoumarin for the photochemotherapy of psoriasis and related skin diseases” (Consiglio Nazionale delle Ricerche, priority 1979, dated 1982)

Key:
DNA [1] = experiment: Dark complex formation (intercalation) with DNA in the ground state, binding parameters; design: K (association constants) of the complexes with DNA: unit not given here; settings: for K (association constants) of the complexes with DNA / 1/n (frequency of binding sites): in vitro, ground state; for K (association constants) of the complexes with DNA: McGhee and Von Hippel method; for 1/n (frequency of binding sites): molecules bound per nucleotide; for 1/n (frequency of binding sites), relative / K (association constants), relative: relative (ang = 100)
Excerpt: Dark complex formation: It is known from F. Dall'Acqua, et al. Chem.-Biol. Interactions 21,103 (1978) that the intercalated complex formed by furocoumarins with DNA strongly affects the successive photoaddition increasing the rate of photobinding. […] These parameters have been determined according to the method of McChee and Von Hippel, J.Mol.Biol, 86, 469 (1974).
(a) Determined according to Mc Ghee and Von Hippel, J. Mol. Biol.,

epidermal DNA synthesis [2] = experiment: Inhibition of the synthesis of epidermal DNA of the mouse in vivo after oral administration and UV-A irradiation; settings: oral 0.25 g/Kg, UV-A 9 J/cm^2 after two hours
Excerpt: Considering that the topical skin tests carried out on mice to evaluate the effectiveness of these substances has yielded data which correlate well with the clinical data, such a test conveniently modified has been adopted to evaluate the effectiveness of the alkylangelicins after oral administration followed by UV-A irradiation.
In this connection experiments have been conducted using mice 20±2 g in weight, that were starved for three hours before oral administration of the alkylangelicins. Groups of 5 mice were fed a suspension of 0.5% methylcellulose in water containing the alkylangelicins of the invention at a dosage of 0.25 g/Kg. The animals were kept in the dark for two hours, that is for the time necessary for absorption, systemic distribution and localization of the drug at the level of the skin. The animals were then irradiated with UV-A light, 9 J/cm^2. Later the animals were sacrificed and the inhibition of the epidermal DNA synthesis was tested; the results obtained are reported in Table VI. The skin on the back, protected from light by a dark paper, was assumed as a control. As a reference 8-MOP, used under the same experimental conditions, was also tested. The significant activity of the alkylangelicins according to the present invention, higher than that of 8-MOP, in inhibiting the epidermal DNA synthesis in mice upon oral administration allows one to consider these compounds as also being effective for oral administration to humans for photochemotherapy of psoriasis and of other skin diseases that are characterized by cellular hyperproliferation.

epidermal DNA synthesis [3] = experiment: Inhibition of epidermal DNA synthesis in the mouse in vivo after topical application and UV-A irradiation; settings: light or radiation study, 0.01% methanol solutions, UV-A 9 J/cm^2, read-out: Percent inhibition ± standard error of epidermal DNA synthesis
Description: DNA samples were dissolved in water and their specific radioactivity determined.
Each drug substance was studied using at least six mice.

DNA [4] = experiment: Capacity to form inter-strand cross-linkages in DNA; type: biochemical; settings: (psr = 100)
Description: All these compounds were not suitable to photoinduce in DNA inter-strand cross-linkages. […] These tests were carried out according to the method of F. Bordin et al., Photochem. Photobiol., 29,1063 (1979).

skin = experiment: Relative skin phototoxicity; settings: (psr = 100)
DNA [5] = experiment: Photobinding to DNA, rate constants of the photoreactions; type: biochemical; settings: for Rate constants of the photoreactions with DNA: in vitro, UV-A irradiated; for Rate constants of the photoreactions with DNA, relative: relative (ang = 100)
Excerpt: (b) Determined according to F. Dall'Acqua, S. Marciani, F. Zambon and G.
Rodighiero, Photochem. Photobiol., 29,489(1979).
Photobinding capacity to DNA: The introduction of one or two methyl groups in the molecule of angelicin leads to a strong increase of the photobinding to DNA; see Table II. […] Photobiol., 29, 489 (1979).

[6] = test system: RNA synthesis in Ehrlich ascites tumor cells; experiment: Inhibition of RNA synthesis on irradiation at 365 nm; type: cell-based; settings: relative (ang = 100)
Excerpt: (§1) Photobiological activity: A significant test for assessing photobiological activity of alkylangelicins is the study of their capacity to inhibit DNA and RNA synthesis in Ehrlich ascites tumor cells. In Table III the capacity of inhibition is expressed as ID50, that is the irradiation does, in terms of quanta at 365 nm, necessary to inhibit in these cells the 50% of the DNA and RNA synthesis in the presence of a constant amount of alkylangelicin. […] Moreover, in general it can be observed that in this simple biological system a close correlation exists between photobiological activity and the capacity to induce photochemical lesions in DNA, that is photoreactivity.

psoriasis = experiment: Topical photochemotherapy of psoriasis in patients; type: in vivo, human; settings: for No. of patients with Excellent result / No. of patients with Fair result / No. of patients with Good result / No. of patients with Poor result: topical 0.1% w/v + UV-A; for No. of patients with Excellent result: Excellent = 90% clearance; for No. of patients with Fair result: Fair = 50-70%; for No. of patients with Good result: Good = 70-90%; for No. of patients with Poor result: Poor 40%
Excerpt: Clinical data: The effectiveness of certain representative alkylangelicins according to the present invention, specifically 5-methylangelicin, 4,5'-dimethylangelicin, 4'-hydroxymethyl-4,5'-dimethylangelicin, 4'-hydroxymethyl-4,5'-dimethylangelicin and 4,5-dimethylangelicin, has been tested by measuring their capacity to resolve psoriasis in various patients. For a direct comparison the efficacy of the parent unsubstituted angelicin and that of three very effective linear furocoumarins, that is 8-methoxypsoralen (8-MOP), 5-methoxypsoralen (5-MOP), and 4,5',8-trimethylpsoralen (TMP) were also tested.
In each treatment four areas of the affected skin were used;
(a) In the first area an alcohol lotion, containing 10% glycerine, of the tested compound (0.1% w/v) was applied until a concentration of […] was reached then left to evaporate by the heat of the body. After half an hour the area was irradiated with high intensity UV-A emitting low pressure mercury fluorescent lamps with a wavelength of 320-400 nm. The irradiation doses were selected in the range of 4.5-13 J/cm^2 for each application as a function of the sensitivity of the skin of the patients; when the skin sensitivity was higher, the light doses were lower and vice versa.
(b) A second area was treated with an alcohol solution of the drug as in (a) but it was covered and maintained in the dark.
(c) A third area, where the drug was not applied, was irradiated as in (a) but in general with higher UV-A doses.
(d) A fourth area was not treated at all, neither with the drug, not with UV-A.
The treatment with the alkylangenlicins referred to above was repeated 5 time a week for two or more weeks; the total number of treatments was between 8 and 20 per subject. In some cases, as for instance with 5-methylangelicin, a good clearing of psoriasis was observed after 8 treatments.
In order to avoid induction of photosensitization processes such as redness and erythema in the reference tests made with the linear furocoumarins 8-MOP, 5-MOP, TMP, lower light doses were used than in the case of alkylangelicins, the treatments were repeated at a frequency of no more than three times a week.

[7] = test system: DNA synthesis in Ehrlich ascites tumor cells; experiment: Inhibition of DNA synthesis (and DNA and RNA synthesis) on irradiation at 365 nm; type: cell-based; settings: for inhibition of DNA synthesis, relative: relative (ang = 100)
Excerpt: as §1

[8] = Table I; cited from earlier work
[9] = known furocoumarins, Table I; cited from earlier work
melamin pigmentation = settings: Table I; cited from earlier work
DNA [10] = settings: cited from earlier work; for DNA intercalation property / Interstrand cross-linking induction in DNA / Monoadduct forming property: Table I; for Photobinding capacity to DNA: known furocoumarins
[11] = cited from earlier work
DNA synthesis = settings: Table I; cited from earlier work

Compound | K (association constants) of the complexes with DNA (DNA [1]) | 1/n (frequency of binding sites) (DNA [1]) | 1/n (frequency of binding sites), relative (DNA [1]) | K (association constants), relative (DNA [1]) | Rate constants of the photoreactions with DNA (DNA [5]) | Rate constants of the photoreactions with DNA, relative (DNA [5]) | inhibition in vivo at 0.01 % (epidermal DNA synthesis [3]) | capacity to form interstrand cross-linkages (DNA [4]) | Relative skin phototoxicity (skin) | inhibition of RNA synthesis, relative [6] | No. of patients with Excellent result (psoriasis) | No. of patients with Fair result (psoriasis) | No. of patients with Good result (psoriasis) | No. of patients with Poor result (psoriasis) | inhibition of DNA synthesis, relative [7] | other results
4'-aminomethoxymethyl-4,5'-dimethylangelicin |  |  |  |  |  |  |  |  |  |  |  |  |  |  |  | increase of K (affinity towards DNA) (DNA [1]; on introduction of a cationic moiety in addition to the two methyl groups): more than 20 times
CC(=O)OCc1c(C)oc2ccc3c(C)cc(=O)oc3c12 [4'-acetoxymethyl-4,5'-dimethylangelicin, 4,5'-dimethyl-4'-acetoxymethylangelicin] |  |  |  |  |  |  | 10.6 ± 4.5% |  |  |  |  |  |  |  |  | Percent inhibition ± standard error of epidermal DNA synthesis (epidermal DNA synthesis [2]): 64.8 ± 13.9%
Cc1oc2ccc3c(C)cc(=O)oc3c2c1CO [4'-hydroxymethyl-4,5'-dimethylangelicin, 4,5'-dimethyl-4'-hydroxy-methylangelicin] | 1250 | 0.087 | 138 | 223 | 3.2 K × 10^-2 × min^-1 |  |  | 0 | 0 | 169 | 0 patients | 2 patients | 1 patients | 1 patients | 272 | Percent inhibition ± standard error of epidermal DNA synthesis (epidermal DNA synthesis [2]): 54.2 ± 6.8%
Cc1cc2c(cc(C)c3c(C)cc(=O)oc32)o1 [4,5,5'-trimethylangelicin] |  |  |  |  |  |  |  |  |  |  |  |  |  |  |  | photobinding capacity to DNA (in words) (DNA [5]; versus angelicin): close to that of angelicin; capacity to inhibit the DNA and RNA synthesis (in words) ([7]; Ehrlich ascites tumor cells, versus angelicin): lower than that of angelicin
Cc1cc(=O)oc2c1c(C)cc1occc12 [4,5-dimethylangelicin] |  |  |  |  |  |  | 36 ± 1.1% |  |  |  | 0 patients | 0 patients | 0 patients | 2 patients |  | Percent inhibition ± standard error of epidermal DNA synthesis (epidermal DNA synthesis [2]): 55.0 ± 6.0%; efficacy in psoriasis patients (in words) (psoriasis; topical + UV-A): equal to angelicin
COc1c2ccoc2cc2oc(=O)ccc12 [5-MOP, 5-methoxypsoralen] |  |  |  |  |  |  |  |  |  |  | 0 patients | 1 patients | 4 patients | 4 patients |  | Mutagenicity [8]: known, strong; Photosensitizing activity [9]: known, strong; Stimulation of melamin pigmentation (melamin pigmentation): strong, well known; DNA intercalation property (DNA [10]): strong; Interstrand cross-linking induction in DNA (DNA [10]): strong, well known; Monoadduct forming property (DNA [10]): known, strong; Photobinding capacity to DNA (DNA [10]): known, strong; Carcinogenicity (oral) [11]: weak; Carcinogenicity (topical) [11]: strong; DNA synthesis inhibiting property (DNA synthesis): known, strong
Cc1cc2cc3c(C)cc(=O)oc3c(C)c2o1 [TMP, 4,5',8-trimethylpsoralen] |  |  |  |  |  |  |  |  |  |  | 2 patients | 2 patients | 2 patients | 2 patients |  | Mutagenicity [8]: known, strong; Photosensitizing activity [9]: known, strong; Stimulation of melamin pigmentation (melamin pigmentation): strong, well known; DNA intercalation property (DNA [10]): strong; Interstrand cross-linking induction in DNA (DNA [10]): strong, well known; Monoadduct forming property (DNA [10]): known, strong; Photobinding capacity to DNA (DNA [10]): known, strong; Carcinogenicity (oral) [11]: weak; Carcinogenicity (topical) [11]: strong; DNA synthesis inhibiting property (DNA synthesis): known, strong

Further lines, with some results ahead:

K (association constants) of the complexes with DNA (DNA [1]) | 1/n (frequency of binding sites) (DNA [1]) | 1/n (frequency of binding sites), relative (DNA [1]) | K (association constants), relative (DNA [1]) | Rate constants of the photoreactions with DNA (DNA [5]) | Rate constants of the photoreactions with DNA, relative (DNA [5]) | Compound | inhibition in vivo at 0.01 % (epidermal DNA synthesis [3]) | capacity to form interstrand cross-linkages (DNA [4]) | Relative skin phototoxicity (skin) | inhibition of RNA synthesis, relative [6] | No. of patients with Excellent result (psoriasis) | No. of patients with Fair result (psoriasis) | No. of patients with Good result (psoriasis) | No. of patients with Poor result (psoriasis) | inhibition of DNA synthesis, relative [7] | other results
700 | 0.050 | 80 | 125 | 1.6 K × 10^-2 × min^-1 | 145 | COCc1c(C)oc2ccc3c(C)cc(=O)oc3c12 [4'-methoxymethyl-4,5'-dimethylangelicin, 4,5'-dimethyl-4'-methoxymethylangelicin] |  | 0 | 0 | 169 |  |  |  |  | 110 | 
1400 | 0.076 | 120 | 250 | 1.61 K × 10^-2 × min^-1 | 146 | Cc1cc(=O)oc2c1ccc1occc12 [4-methylangelicin] | 68.5 ± 19.5% | 0 | 0 | 129 |  |  |  |  | 104 | 
1200 | 0.073 | 116 | 214 | 2.11 K × 10^-2 × min^-1 | 191 | Cc1cc2c(ccc3ccc(=O)oc32)o1 [5'-methylangelicin, 5'methylangelicin] |  | 0 | 0 | 134 |  |  |  |  | 150 | 
1750 | 0.085 | 135 | 312 | 2.73 K × 10^-2 × min^-1 | 248 | Cc1cc2c(cc(C)c3ccc(=O)oc32)o1 [5,5'-dimethylangelicin] | 48.3 ± 2.9% | 0 | 0 | 355 |  |  |  |  | 180 | 
